Data: patent publication US12053473B2, “Benzylamino substituted quinazolines and derivatives as SOS1 inhibitors” (priority 2016, dated 2024)

Molecular target: SOS1 and KRAS G12D (protein-protein interaction) (Homo sapiens, UniProt Q07889)
Assay: KRAS::SOS1 AlphaScreen binding assay
Conditions: not given
Protocol: KRAS::SOS1 AlphaScreen Binding Assay
Low IC50 values are indicative of high potency of the SOS1 inhibitor compound in this assay setting:
10 nM (final assay concentration) KRAS G12D, 10 μM (final assay concentration) GDP and 5 nM (final assay concentration) GST-SOS1 are mixed in assay buffer prior to use and kept at room temperature.
AlphaLSA Glutathione Acceptor Beads and AlphaScreen Streptavidin Donor Beads are mixed in assay buffer at a concentration of 10 μg/mL (final assay concentration) each prior to use and kept at room temperature.
Compounds are diluted to a final start concentration of 100 μM and are tested in duplicate. […] For compound a start concentration of 100 μM, 150 nL of compound solution is transferred per well in 11 concentrations in duplicate with serial 1:5 dilutions.
The assay is run using a fully automated robotic system in a darkened room below 100 Lux. 10 μL of KRAS::SOS1 GDP mix is added into columns 1-24 to the 150 nL of compound solution (final dilution in the assay 1:100, final DMSO concentration 1%).
After a 30 minute incubation time 5 μL of bead mix is added into columns 1-23. Plates are kept at room temperature in a darkened incubator. After a further 60 minute incubation, the signal is measured using a PerkinElmer Envision HTS Multilabel Reader using the AlphaScreen specifications from PerkinElmer. Each plate contains the following controls: • diluted DMSO+KRAS::SOS1 GDP mix+bead mix • diluted DMSO+KRAS::SOS1 GDP mix Result Calculation:
IC50 values are calculated and analyzed using a 4 parametric logistic model.

Compound	IC50 [µM]
COCCN1CCN(C(=O)[C@H]2CC[C@@H](c3cc4c(N[C@H](C)c5cc(N)cc(C(F)(F)F)c5F)nc(C)nc4cc3OC)CC2)CC1 [I-247]	0.018

Same assay, conditions: assay buffer with 100 μM EDTA (values marked with an asterisk); read-out: IC50 (SOS1)

Compound	IC50 [µM]
Cc1cccc([C@@H](C)Nc2nc(C)nc3ccc(C4CC[S+]([O-])CC4)cc23)c1 (some centres unmarked) [I-160]	0.022
Cc1cccc([C@@H](C)Nc2nc(C)nc3ccc(C4CCS(=O)(=O)CC4)cc23)c1 [I-161]	0.029
Cc1nc(N[C@H](C)c2cccc(C(F)(F)F)c2)c2cc(-c3cnn(C4CCNCC4)c3)ccc2n1 [I-168]	0.048
Cc1nc(N[C@H](C)c2cccc(Cl)c2F)c2cc(C3=CCNCC3)ccc2n1 [I-170]	0.024
Cc1nc(N[C@H](C)c2cccc(C(F)(F)F)c2)c2cc(C3=CCNCC3)ccc2n1 [I-171]	0.018
Cc1nc(N[C@H](C)c2cccc(Cl)c2)c2cc(C3=CCNCC3)ccc2n1 [I-172]	0.039
Cc1nc(N[C@H](C)c2cccc(C(F)(F)F)c2)c2cc(C3CCNCC3)ccc2n1 [I-182]	0.022
Cc1cccc([C@@H](C)Nc2nc(C)nc3ccc(C4CCNCC4)cc23)c1 [I-183]	0.038

Same assay, conditions: assay buffer without EDTA (values not marked with an asterisk); read-out: IC50 (SOS1)

Compound	IC50 [µM]
Cc1nc(N[C@H](C)c2cccc(C(F)(F)F)c2)c2cc(C3CCOCC3)ccc2n1 [I-153]	0.033
Cc1cccc([C@@H](C)Nc2nc(C)nc3ccc(C4CCOCC4)cc23)c1 [I-154]	0.043
COc1cc2nc(C)nc(N[C@H](C)c3cccc(C(F)(F)CO)c3)c2cc1C1CCOCC1 [I-164]	0.003
COCC(=O)N1CCC(c2cc3c(N[C@H](C)c4cccc(C(F)(F)CO)c4)nc(C)nc3cc2OC)CC1 [I-165]	0.002
COc1cc2nc(C)nc(N[C@H](C)c3cccc(C(F)(F)CO)c3)c2cc1C1CCN(C(C)=O)CC1 [I-166]	0.002
COc1cc2nc(C)nc(N[C@H](C)c3cccc(C4(O)COC4)c3)c2cc1C1CCN(C(C)=O)CC1 [I-167]	0.018
Cc1cccc([C@@H](C)Nc2nc(C)nc3cc(C)c(C4CCNCC4)cc23)c1 [I-176]	0.046
COc1cc2nc(C)nc(N[C@H](C)c3cccc(C(F)(F)F)c3)c2cc1-c1ccc(C(=O)N(C)C)nc1 [I-189]	0.023
COc1cc2nc(C)nc(N[C@H](C)c3cccc(C)c3)c2cc1-c1ccc(C(=O)N(C)C)nc1 [I-190]	0.034
COc1cc2nc(C)nc(N[C@H](C)c3cccc(C(F)(F)F)c3)c2cc1-c1ccc(C(=O)N(C)C)cn1 [I-191]	0.035

Same assay, conditions: read-out: IC50 (SOS1)

Compound	IC50 [µM]
COc1cc2nc(C)nc(N[C@H](C)c3cc(N)cc(C(F)(F)F)c3)c2cc1-c1ccc(=O)n(C)c1 [I-108]	0.008
Cc1nc(N[C@H](C)c2cccc(C(F)(F)F)c2)c2cc(-c3ccc(=O)n(C)c3)c(C)cc2n1 [I-109]	0.025
COc1cc2nc(C)nc(N[C@H](C)c3cc(N)cc(C(F)(F)F)c3F)c2cc1-c1ccc(=O)n(C)c1 [I-110]	0.008
COc1cc2nc(C)nc(N[C@H](C)c3cccc(C(F)(F)F)c3)c2cc1-c1ccc(C(=O)N(C)CCO)cc1 [I-214]	0.04
COc1cc2nc(C)nc(N[C@H](C)c3cccc(C(F)(F)F)c3)c2cc1-c1ccc(C(=O)N2CCOCC2)cc1 [I-215]	0.037
COc1cc2nc(C)nc(N[C@H](C)c3cccc(C(F)(F)F)c3)c2cc1-c1ccc(C(=O)N(C)C)c(C)c1 [I-216]	0.048
COc1cc(-c2cc3c(N[C@H](C)c4cccc(C(F)(F)F)c4)nc(C)nc3cc2OC)ccc1C(=O)N(C)C [I-217]	0.043
COCC(=O)N1CC=C(c2ccc3nc(C)nc(N[C@H](C)c4cc(N)cc(C(F)(F)F)c4)c3c2)CC1 [I-220]	0.003
CC(=O)N1CC=C(c2ccc3nc(C)nc(N[C@H](C)c4cccc(C(F)(F)F)c4)c3c2)CC1 [I-221]	0.011
Cc1nc(N[C@H](C)c2cccc(C(F)(F)F)c2)c2cc(C3=CCC(C(=O)N(C)C)CC3)ccc2n1 (some centres unmarked) [I-222]	0.019
Cc1nc(N[C@H](C)c2cccc(C(F)(F)F)c2)c2cc(C3=CCC(C(=O)N4CCN(C)CC4)CC3)ccc2n1 (some centres unmarked) [I-223]	0.027
COc1cc2nc(C)nc(N[C@H](C)c3cc(N)cc(C(F)(F)F)c3)c2cc1-c1ccc(C(=O)N(C)CCO)nc1 [I-224]	0.004
COc1cc2nc(C)nc(N[C@H](C)c3cccc(C(F)(F)F)c3)c2cc1C1CCC(C(=O)N(C)CC(O)CO)CC1 (some centres unmarked) [I-227]	0.027
Cc1nc(N[C@H](C)c2cccc(C(F)(F)F)c2)c2cc([C@H]3CC[C@H](C(=O)N(C)C)CC3)ccc2n1 [I-229]	0.007
COC1CN(C(=O)[C@H]2CC[C@H](c3ccc4nc(C)nc(N[C@H](C)c5cccc(C(F)(F)F)c5)c4c3)CC2)C1 [I-230]	0.032
Cc1nc(N[C@H](C)c2cccc(C(F)(F)F)c2)c2cc([C@H]3CC[C@H](C(=O)N4CC(F)C4)CC3)ccc2n1 [I-231]	0.019
Cc1nc(N[C@H](C)c2cccc(C(F)(F)F)c2)c2cc([C@H]3CC[C@@H](C(=O)N(C)C4COC4)CC3)ccc2n1 [I-233]	0.038
Cc1nc(N[C@H](C)c2cc(N)cc(C(F)(F)F)c2)c2cc([C@H]3CC[C@H](C(=O)N4CCOCC4)CC3)ccc2n1 [I-234]	0.002
Cc1nc(N[C@H](C)c2cc(N)cc(C(F)(F)F)c2)c2cc([C@H]3CC[C@@H](C(=O)N4CCOCC4)CC3)ccc2n1 [I-235]	0.008
COCCN(C)C(=O)[C@H]1CC[C@H](c2ccc3nc(C)nc(N[C@H](C)c4cc(N)cc(C(F)(F)F)c4)c3c2)CC1 [I-236]	0.002

Compound	IC50 [µM]
COCCN(C)C(=O)[C@H]1CC[C@@H](c2ccc3nc(C)nc(N[C@H](C)c4cc(N)cc(C(F)(F)F)c4)c3c2)CC1 [I-237]	0.009
CCN(C)C(=O)[C@H]1CC[C@H](c2ccc3nc(C)nc(N[C@H](C)c4cc(N)cc(C(F)(F)F)c4)c3c2)CC1 [I-238]	0.003
CCN(C)C(=O)[C@H]1CC[C@@H](c2ccc3nc(C)nc(N[C@H](C)c4cc(N)cc(C(F)(F)F)c4)c3c2)CC1 [I-239]	0.015
COCCN1CCN(C(=O)[C@H]2CC[C@H](c3ccc4nc(C)nc(N[C@H](C)c5cc(N)cc(C(F)(F)F)c5)c4c3)CC2)CC1 [I-240]	0.002
COCCN1CCN(C(=O)[C@H]2CC[C@@H](c3ccc4nc(C)nc(N[C@H](C)c5cc(N)cc(C(F)(F)F)c5)c4c3)CC2)CC1 [I-241]	0.007
Cc1nc(N[C@H](C)c2cc(N)cc(C(F)(F)F)c2)c2cc([C@H]3CC[C@H](C(=O)N(C)[C@@H]4CCOC4)CC3)ccc2n1 [I-242]	0.005
Cc1nc(N[C@H](C)c2cc(N)cc(C(F)(F)F)c2)c2cc([C@H]3CC[C@@H](C(=O)N(C)[C@@H]4CCOC4)CC3)ccc2n1 [I-243]	0.009
COc1cc2nc(C)nc(N[C@H](C)c3cc(N)cc(C(F)(F)F)c3F)c2cc1[C@H]1CC[C@H](C(=O)N(C)C)CC1 [I-244]	0.002
COc1cc2nc(C)nc(N[C@H](C)c3cc(N)cc(C(F)(F)F)c3F)c2cc1[C@H]1CC[C@@H](C(=O)N(C)C)CC1 [I-245]	0.035
COCCN1CCN(C(=O)[C@H]2CC[C@H](c3cc4c(N[C@H](C)c5cc(N)cc(C(F)(F)F)c5F)nc(C)nc4cc3OC)CC2)CC1 [I-246]	0.002
COc1cc2nc(C)nc(N[C@H](C)c3cc(N)cc(C(F)(F)F)c3C)c2cc1[C@H]1CC[C@H](C(=O)N(C)C)CC1 [I-248]	0.002
COc1cc2nc(C)nc(N[C@H](C)c3cc(N)cc(C(F)(F)F)c3C)c2cc1[C@H]1CC[C@@H](C(=O)N(C)C)CC1 [I-249]	0.038
Cc1nc(N[C@H](C)c2cc(N)cc(C(F)(F)F)c2)c2cc([C@H]3CC[C@H](C(=O)N(C)[C@H]4CCOC4)CC3)ccc2n1 [I-250]	0.004
Cc1nc(N[C@H](C)c2cc(N)cc(C(F)(F)F)c2)c2cc([C@H]3CC[C@@H](C(=O)N(C)[C@H]4CCOC4)CC3)ccc2n1 [I-251]	0.01
Cc1nc(N[C@H](C)c2cc(N)cc(C(F)(F)F)c2)c2cc([C@H]3CC[C@@H](C(=O)N(C)CCO)CC3)ccc2n1 [I-253]	0.007
Cc1nc(N[C@H](C)c2cc(N)cc(C(F)(F)F)c2)c2cc([C@H]3CC[C@H](C(=O)N(C)C[C@H](C)O)CC3)ccc2n1 [I-254]	0.002
Cc1nc(N[C@H](C)c2cc(N)cc(C(F)(F)F)c2)c2cc([C@H]3CC[C@@H](C(=O)N(C)C[C@H](C)O)CC3)ccc2n1 [I-255]	0.008
Cc1nc(N[C@H](C)c2cc(N)cc(C(F)(F)F)c2)c2cc([C@H]3CC[C@H](C(=O)N(C)C[C@@H](C)O)CC3)ccc2n1 [I-256]	0.003
Cc1nc(N[C@H](C)c2cc(N)cc(C(F)(F)F)c2)c2cc([C@H]3CC[C@H](C(=O)N(C)CC(C)(C)O)CC3)ccc2n1 [I-258]	0.003
Cc1cccc([C@@H](C)Nc2nc(C)nc3ccc([C@H]4CC[C@H](C(=O)N(C)C)CC4)cc23)c1 [I-264]	0.013

Same assay, conditions: values marked with * in the table; read-out: IC50 (SOS1)

Compound	IC50 [µM]
Cc1cccc([C@@H](C)Nc2nc(C)nc3cc(C)c(-c4ccc(=O)n(C)c4)cc23)c1 [I-105]	0.036
Cc1nc(N[C@H](C)c2cc(N)cc(C(F)(F)F)c2)c2cc(-c3ccc(=O)n(C)c3)c(C)cc2n1 [I-107]	0.004
COCC(=O)N1CCC(n2cc(-c3ccc4nc(C)nc(N[C@H](C)c5cccc(C)c5)c4c3)cn2)CC1 [I-219]	0.034
